Experiment [1] addresses Rhesus PDE2A3 (Macaca mulatta, UniProt B3VTJ2). As to the kind of experiment: PDE2 fluorescence polarization (IMAP FP) inhibition assay, rhesus enzyme. Format: biochemical, rhesus macaque. The method, boiled down:
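IMAP FP (mP from parallel and perpendicular fluorescence against substrate-only control) was read ≥1 h after adding binding reagent. The preceding 60 min room-temperature reaction contained FAM-cAMP (50 nM) and cGMP (1 uM) in pH 7.2 Tris buffer with MgCl2 and DTT. Enzyme was supernatant of sonicated AD293 cells expressing rhesus PDE2A3; compounds were 3-fold titrated, DMSO 1% final.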

Experiment [2] concerns the target human PDE2A1 (Homo sapiens (Human), UniProt O00408). As to the kind of experiment: IMAP FP PDE selectivity panel, human PDE2A1. Format: biochemical. The method, boiled down:
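IMAP FP format: substrate 50 nM FAM-cAMP plus 1000 nM cGMP, enzyme (insect-cell GST-tagged human PDE2A1) at ~20% conversion, 60 min reaction at room temperature. Apparent inhibition constants calculated from parallel/perpendicular fluorescence with KM 10,000 nM.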

Where [3] appears, read: Rhesus PDE2, Lab B, read-out: Rhesus PDE2 Ki (nM) - Lab B.
[4] abbreviates: Human PDE2, Lab B, read-out: Human PDE2 Ki (nM) - Lab B.
The mark [5] stands for this setting: Rhesus PDE2, Lab A, read-out: Rhesus PDE2 Ki (nM) - Lab A.
The mark [6] stands for this setting: Human PDE2, Lab A, read-out: Human PDE2 Ki (nM) - Lab A.

Where two headings read alike, the source gives them in different places.

Sequence of Rhesus PDE2A3 (B3VTJ2 1-941): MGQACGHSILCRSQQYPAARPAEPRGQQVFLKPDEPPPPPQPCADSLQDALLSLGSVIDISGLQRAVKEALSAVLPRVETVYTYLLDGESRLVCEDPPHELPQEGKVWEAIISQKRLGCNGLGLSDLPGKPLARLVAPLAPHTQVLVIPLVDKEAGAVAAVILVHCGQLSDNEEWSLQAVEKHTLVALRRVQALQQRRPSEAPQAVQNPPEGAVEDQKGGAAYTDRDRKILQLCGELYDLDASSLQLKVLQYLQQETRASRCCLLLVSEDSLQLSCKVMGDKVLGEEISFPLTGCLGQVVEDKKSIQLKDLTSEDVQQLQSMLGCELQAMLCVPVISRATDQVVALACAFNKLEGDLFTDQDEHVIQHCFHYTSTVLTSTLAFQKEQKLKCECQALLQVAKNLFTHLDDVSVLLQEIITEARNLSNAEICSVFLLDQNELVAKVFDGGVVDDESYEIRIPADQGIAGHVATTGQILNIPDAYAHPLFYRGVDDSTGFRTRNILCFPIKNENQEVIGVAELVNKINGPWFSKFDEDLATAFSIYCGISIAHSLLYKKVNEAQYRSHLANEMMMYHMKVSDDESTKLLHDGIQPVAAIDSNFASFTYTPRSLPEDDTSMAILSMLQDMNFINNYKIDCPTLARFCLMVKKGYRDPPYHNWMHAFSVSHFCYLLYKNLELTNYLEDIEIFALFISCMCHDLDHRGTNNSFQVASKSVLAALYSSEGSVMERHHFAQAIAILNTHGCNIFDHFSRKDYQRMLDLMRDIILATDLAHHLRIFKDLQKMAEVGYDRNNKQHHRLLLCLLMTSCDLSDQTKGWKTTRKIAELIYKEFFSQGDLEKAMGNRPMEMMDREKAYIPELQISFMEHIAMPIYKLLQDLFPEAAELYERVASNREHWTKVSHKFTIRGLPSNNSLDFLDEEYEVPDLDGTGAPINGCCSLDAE
Sequence of human PDE2A1 (O00408 other isoform, or with tags, fused parts or gaps): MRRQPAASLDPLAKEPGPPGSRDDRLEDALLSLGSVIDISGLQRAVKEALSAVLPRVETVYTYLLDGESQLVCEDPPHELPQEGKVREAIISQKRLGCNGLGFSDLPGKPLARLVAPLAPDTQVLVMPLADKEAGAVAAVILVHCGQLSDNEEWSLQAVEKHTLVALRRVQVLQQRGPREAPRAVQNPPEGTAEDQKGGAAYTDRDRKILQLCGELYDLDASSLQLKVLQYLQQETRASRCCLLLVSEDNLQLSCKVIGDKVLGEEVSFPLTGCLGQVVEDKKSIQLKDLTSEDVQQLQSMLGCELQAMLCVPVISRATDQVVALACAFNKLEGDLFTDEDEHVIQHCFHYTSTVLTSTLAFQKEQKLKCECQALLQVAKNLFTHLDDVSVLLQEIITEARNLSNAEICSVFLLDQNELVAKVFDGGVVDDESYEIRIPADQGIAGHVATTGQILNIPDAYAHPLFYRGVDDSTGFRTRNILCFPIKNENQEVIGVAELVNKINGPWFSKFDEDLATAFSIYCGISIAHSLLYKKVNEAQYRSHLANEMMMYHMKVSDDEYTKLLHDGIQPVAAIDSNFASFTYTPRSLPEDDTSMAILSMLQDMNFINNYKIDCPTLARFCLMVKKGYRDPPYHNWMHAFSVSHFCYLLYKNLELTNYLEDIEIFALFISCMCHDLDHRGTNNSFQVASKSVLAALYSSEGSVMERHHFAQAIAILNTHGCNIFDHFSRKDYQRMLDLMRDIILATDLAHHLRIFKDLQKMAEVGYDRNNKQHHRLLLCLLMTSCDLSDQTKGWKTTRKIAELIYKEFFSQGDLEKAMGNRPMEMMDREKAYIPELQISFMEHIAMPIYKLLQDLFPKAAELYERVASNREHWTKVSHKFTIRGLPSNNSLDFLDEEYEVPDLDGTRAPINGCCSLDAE

For orientation: Ki means the dissociation constant of the complex between target and ligand, obtained from inhibition or displacement. In the case of `Cc1nc(C(=O)NC(C)(C)c2ccc(C(F)(F)F)cc2Cl)cc(=O)[nH]1` [Example 593, N-{1-[2-chloro-4-(trifluoromethyl)phenyl]-1-methylethyl}-2-methyl-6-oxo-1,6-dihydropyrimidine-4-carboxamide], the Ki is 11 nM in experiment [1] (setting [3]) and 10 nM in experiment [2] (setting [4]).
On to `O=C(NC1(c2ccc(SC(F)(F)F)c(F)c2)CC1)c1cc(=O)[nH]c(-c2ncccn2)n1` [Example 253, N-(1-{3-fluoro-4-[(trifluoromethyl)sulfanyl]phenyl}cyclopropyl)-6-oxo-1,6-dihydro-2,2′-bipyrimidine-4-carboxamide], for which the figures for the Ki in experiment [1] (setting [5]) and in experiment [2] (setting [6]) were 14 nM and 17 nM, respectively.
Consider `COc1ccc(Cc2nc(C(=O)N[C@@H](c3ccc(SC(F)(F)F)c(F)c3)C(C)C)cc(=O)[nH]2)cc1` [Example 470, N-[(1R)-1-{3-fluoro-4-[(trifluoromethyl)sulfanyl]phenyl}-2-methylpropyl]-2-(4-methoxybenzyl)-6-oxo-1,6-dihydropyrimidine-4-carboxamide], for which the Ki was found to be 1.2 nM in experiment [1] (setting [3]) and 1.3 nM in experiment [2] (setting [4]).
Consider `COc1ccc2cc(C(C)NC(=O)c3cc(=O)[nH]c(C)n3)ccc2c1` (single isomer, unassigned) [Example 313, (R)- or (S)-N-[1-(6-methoxynaphthalen-2-yl)ethyl]-2-methyl-6-oxo-1,6-dihydropyrimidine-4-carboxamide], for which the Ki in experiment [1] (setting [5]) is 51 nM; in experiment [2] (setting [6]), 54 nM.
As for `CC(C)(C)[C@@H](NC(=O)c1cc(=O)[nH]c(C2CC2)n1)c1ccc(OC(F)(F)F)cc1` [Example 463, 2-cyclopropyl-N-{(1R)-2,2-dimethyl-1-[4-(trifluoromethoxy)phenyl]propyl}-6-oxo-1,6-dihydropyrimidine-4-carboxamide], the Ki in experiment [1] (setting [3]) stood at 1.2 nM; in experiment [2] (setting [4]), 0.84 nM.
Take `CC(NC(=O)c1cc(=O)[nH]c(-c2ccccc2)n1)c1ccc2c(c1)OCCO2` (centres unmarked) [Example 360, N-[1-(2,3-dihydro-1,4-benzodioxin-6-yl)ethyl]-6-oxo-2-phenyl-1,6-dihydropyrimidine-4-carboxamide]: the Ki was 222 nM in experiment [1] (setting [5]), 459 nM in experiment [1] (setting [3]) and around 488 nM in experiment [2] (setting [4]).
Regarding `COCc1nc(C(=O)N[C@@H](c2ccc(OC(F)(F)F)c(F)c2)C2CC2)cc(=O)[nH]1` [Example 117, N-{(R)-cyclopropyl[3-fluoro-4-(trifluoromethoxy)phenyl]methyl}-2-(methoxymethyl)-6-oxo-1,6-dihydropyrimidine-4-carboxamide], the Ki was 80 nM in experiment [1] (setting [5]), around 13 nM in experiment [2] (setting [6]) and 42 nM in experiment [2] (setting [4]).
Consider `Cc1nc(C(=O)N[C@@H](c2ccc(C(F)(F)F)cc2)[C@@H](C)O)cc(=O)[nH]1` [Example 65, N-((1S,2R)-2-hydroxy-1-(4-(trifluoromethyl)phenyl)propyl)-2-methyl-6-oxo-1,6-dihydropyrimidine-4-carboxamide], for which the values for the Ki in experiment [1] (setting [5]) and in experiment [2] (setting [6]) were 38 nM and 18 nM, respectively.
In the case of `Cc1nc(C(=O)N[C@@H](c2ccc(C(F)(F)F)c(F)c2)C(C)(C)C)cc(=O)[nH]1` [Example 59], the Ki in experiment [1] (setting [3]) amounted to 6.4 nM; in experiment [2] (setting [4]), 4.5 nM.
In the case of `COCc1nc(C(=O)N[C@@H](c2ccc(OC(F)(F)F)cc2)C2CC2)cc(=O)[nH]1` [Example 116, N-{(R)-cyclopropyl[4-(trifluoromethoxy)phenyl]methyl}-2-(methoxymethyl)-6-oxo-1,6-dihydropyrimidine-4-carboxamide], the Ki is 70 nM in experiment [1] (setting [5]) and 16 nM in experiment [2] (setting [6]).
As for `C[C@@H](NC(=O)c1cc(=O)[nH]c(C2CC2)n1)c1ccc(S(F)(F)(F)(F)F)cc1` [Example 227, 2-cyclopropyl-6-oxo-N-{(1R)-1-[4-(pentafluoro-λ^6-sulfanyl)phenyl]ethyl}-1,6-dihydropyrimidine-4-carboxamide], the inhibition constant (Ki) in experiment [1] (setting [5]) came to 12 nM; in experiment [2] (setting [6]) it was 6.5 nM.
With `Cc1nc(C(=O)N[C@H](C)c2ccc(C(F)(F)F)cc2F)cc(=O)[nH]1` [Example 19, N-{(1R)-1-[2-fluoro-4-(trifluoromethyl)phenyl]ethyl}-2-methyl-6-oxo-1,6-dihydropyrimidine-4-carboxamide], the Ki in experiment [1] (setting [5]) turned out to be 96 nM; in experiment [2] (setting [6]), 81 nM.
`COc1cc(OC(F)(F)F)ccc1C(C)NC(=O)c1cc(=O)[nH]c(C2CC2)n1` (centres unmarked) [Example 230, 2-cyclopropyl-N-{1-[2-methoxy-4-(trifluoromethoxy)phenyl]ethyl}-6-oxo-1,6-dihydropyrimidine-4-carboxamide]: the figures for the Ki in experiment [1] (setting [5]) and in experiment [2] (setting [6]) were 25 nM and 11 nM, respectively.
For the compound `CCc1nc(C(=O)N[C@H](C)c2ccc(C(F)(F)F)cc2)cc(=O)[nH]1` [Example 134, 2-ethyl-6-oxo-N-{(1R)-1-[4-(trifluoromethyl)phenyl]ethyl}-1,6-dihydropyrimidine-4-carboxamide], the Ki was 54 nM in experiment [1] (setting [5]), 43 nM in experiment [2] (setting [6]) and 38 nM in experiment [2] (setting [4]).
Take `O=C(NCc1ccc(C(F)(F)F)cc1)c1cc(=O)[nH]c(-c2ccccc2)n1` [Example 371, 6-oxo-2-phenyl-N-[4-(trifluoromethyl)benzyl]-1,6-dihydropyrimidine-4-carboxamide]: the Ki amounted to 68 nM in experiment [1] (setting [5]), 150 nM in experiment [1] (setting [3]) and 117 nM in experiment [2] (setting [4]).
Take `Cc1nc(C(=O)N[C@@H](c2ccc(S(F)(F)(F)(F)F)cc2)C(C)(C)C)cc(=O)[nH]1` [Example 618, N-{(1R)-2,2-dimethyl-1-[4-(pentafluoro-λ^6-sulfanyl)phenyl]propyl}-2-methyl-6-oxo-1,6-dihydropyrimidine-4-carboxamide]: the Ki in experiment [1] (setting [3]) and in experiment [2] (setting [4]) was 2 nM in each case.
Take `O=C(NC1(c2ccc(OC(F)(F)F)cc2)CCC1)c1cc(=O)[nH]c(-c2ncccn2)n1` [Example 290, 6-oxo-N-(1-(4-(trifluoromethoxy)phenyl)cyclobutyl)-1,6-dihydro-[2,2′-bipyrimidine]-4-carboxamide]: the Ki came to 942 nM in experiment [1] (setting [5]) and 540 nM in experiment [2] (setting [6]).
As for `Cc1nc(C(=O)N[C@H](C)c2ccc(OC(F)F)cc2)cc(=O)[nH]1` [Example 304, (R)-N-(1-(4-(difluoromethoxy)phenyl)ethyl)-2-methyl-6-oxo-1,6-dihydropyrimidine-4-carboxamide], the inhibition constant (Ki) in experiment [1] (setting [5]) was 91 nM; in experiment [2] (setting [6]) it was 76 nM.
For `COc1ccc(Cc2nc(C(=O)N[C@@H](c3ccc(C(F)(F)F)c(F)c3)C(C)(C)C)cc(=O)[nH]2)cc1F` [Example 508, 2-(3-fluoro-4-methoxybenzyl)-N-{(1R)-1-[3-fluoro-4-(trifluoromethyl)phenyl]-2,2-dimethylpropyl}-6-oxo-1,6-dihydropyrimidine-4-carboxamide], the figures for the Ki in experiment [1] (setting [3]) and in experiment [2] (setting [4]) were 0.77 nM and 0.8 nM, respectively.
Take `Cc1nc(C(=O)NC(C)(C)c2ccc(C(F)(F)F)cc2)cc(=O)[nH]1` [Example 272, 2-methyl-N-{1-methyl-1-[4-(trifluoromethyl)phenyl]ethyl}-6-oxo-1,6-dihydropyrimidine-4-carboxamide]: the Ki in experiment [1] (setting [5]) was 42 nM; in experiment [2] (setting [6]) it was 40 nM; in experiment [2] (setting [4]), 71 nM.
`C[C@@H](NC(=O)c1cc(=O)[nH]c(-c2ccccc2)n1)c1ccc(OC(F)(F)F)cc1` [Example 275, 6-oxo-2-phenyl-N-{(1R)-1-[4-(trifluoromethoxy)phenyl]ethyl}-1,6-dihydropyrimidine-4-carboxamide]: the inhibition constant (Ki) in experiment [1] (setting [5]) was 4.5 nM; in experiment [2] (setting [6]), 3 nM.

These data come from US9815796B2 (Merck Sharp & Dohme Corp., priority 2013, dated 2017).
